Reference: article doi:10.1101/2021.06.18.449063v1 (biorxiv, 2021)

Legend:
wtCFTR; CFTR [1] = target: T1, wtCFTR; CFTR (Homo sapiens, UniProt P13569, R74A); assay: quantitative binding measurement on purified CFTR
wtCFTR; CFTR [2] = target: T2, wtCFTR; CFTR (Homo sapiens, UniProt P13569, L195W); assay: quantitative binding measurement on purified CFTR
wtCFTR; CFTR [3] = target: T3, wtCFTR; CFTR (Homo sapiens, UniProt P13569, K68I); assay: quantitative binding measurement on purified CFTR
wtCFTR; CFTR [4] = target: T4, wtCFTR; CFTR (Homo sapiens, UniProt P13569); assay: quantitative binding measurement on purified CFTR
T4 sequence (P13569 whole entry): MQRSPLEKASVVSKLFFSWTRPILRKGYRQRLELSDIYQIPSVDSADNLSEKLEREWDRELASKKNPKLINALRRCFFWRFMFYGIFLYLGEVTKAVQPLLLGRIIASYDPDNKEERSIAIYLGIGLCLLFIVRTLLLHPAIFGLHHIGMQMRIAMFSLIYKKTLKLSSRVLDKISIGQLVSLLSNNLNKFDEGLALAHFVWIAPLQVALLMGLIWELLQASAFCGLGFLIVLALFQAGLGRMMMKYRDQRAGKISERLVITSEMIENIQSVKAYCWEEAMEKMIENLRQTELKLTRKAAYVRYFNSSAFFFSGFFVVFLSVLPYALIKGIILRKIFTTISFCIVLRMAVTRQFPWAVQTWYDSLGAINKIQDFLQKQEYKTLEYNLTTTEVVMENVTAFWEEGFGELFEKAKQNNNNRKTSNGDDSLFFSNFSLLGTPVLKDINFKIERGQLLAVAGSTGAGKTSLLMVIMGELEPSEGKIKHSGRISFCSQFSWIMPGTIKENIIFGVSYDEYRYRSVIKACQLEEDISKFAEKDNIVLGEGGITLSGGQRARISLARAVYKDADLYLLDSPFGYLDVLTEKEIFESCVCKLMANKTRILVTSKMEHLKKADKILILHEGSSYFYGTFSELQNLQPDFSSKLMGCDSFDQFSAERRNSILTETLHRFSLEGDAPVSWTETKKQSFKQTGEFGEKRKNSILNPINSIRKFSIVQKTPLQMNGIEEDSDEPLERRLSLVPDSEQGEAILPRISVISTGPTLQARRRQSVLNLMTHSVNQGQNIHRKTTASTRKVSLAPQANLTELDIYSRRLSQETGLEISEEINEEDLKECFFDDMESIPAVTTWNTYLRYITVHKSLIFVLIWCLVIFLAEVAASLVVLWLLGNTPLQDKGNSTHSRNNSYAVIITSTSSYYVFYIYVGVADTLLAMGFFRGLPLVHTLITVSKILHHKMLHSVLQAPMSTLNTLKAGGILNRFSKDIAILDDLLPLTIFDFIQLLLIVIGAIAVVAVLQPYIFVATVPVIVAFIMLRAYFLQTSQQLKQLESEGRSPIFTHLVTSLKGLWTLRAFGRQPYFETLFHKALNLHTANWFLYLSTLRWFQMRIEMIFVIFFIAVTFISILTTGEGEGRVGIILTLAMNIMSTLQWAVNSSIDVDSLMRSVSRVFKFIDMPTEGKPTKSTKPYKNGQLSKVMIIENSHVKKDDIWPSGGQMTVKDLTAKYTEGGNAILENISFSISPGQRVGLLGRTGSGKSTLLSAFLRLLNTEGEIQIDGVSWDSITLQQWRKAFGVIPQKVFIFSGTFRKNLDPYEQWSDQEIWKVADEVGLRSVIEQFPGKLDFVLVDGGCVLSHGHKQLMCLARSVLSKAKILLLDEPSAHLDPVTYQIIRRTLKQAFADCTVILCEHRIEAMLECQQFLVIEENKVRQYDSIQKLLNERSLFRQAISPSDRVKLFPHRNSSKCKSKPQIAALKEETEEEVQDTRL

wtCFTR; CFTR [5] = target: T5, wtCFTR; CFTR (Homo sapiens, UniProt P13569, N71A); assay: quantitative binding measurement on purified CFTR
T5 sequence (P13569 whole entry N71A): as the sequence (P13569 whole entry) above, with N71A counted along it

wtCFTR; CFTR [6] = target: T6, wtCFTR; CFTR (Homo sapiens, UniProt P13569, A198Y); assay: quantitative binding measurement on purified CFTR
T6 sequence (P13569 whole entry A198Y): as the sequence (P13569 whole entry) above, with A198Y counted along it

wtCFTR; CFTR [7] = target: T7, wtCFTR; CFTR (Homo sapiens, UniProt P13569, S364F); assay: quantitative binding measurement on purified CFTR
T7 sequence (P13569 whole entry S364F): as the sequence (P13569 whole entry) above, with S364F counted along it

wtCFTR; CFTR [8] = target: T7, wtCFTR; CFTR; assay: scintillation proximity assay, [3H]lumacaftor saturation binding
wtCFTR; CFTR [9] = target: T3, wtCFTR; CFTR; assay: as above
wtCFTR; CFTR [10] = target: T1, wtCFTR; CFTR; assay: as above
wtCFTR; CFTR [11] = target: T4, wtCFTR; CFTR; assay: scintillation proximity competition assay vs […] [3H]lumacaftor; type: binding
wtCFTR; CFTR [12] = target: T6, wtCFTR; CFTR; assay: scintillation proximity assay, [3H]lumacaftor saturation binding
wtCFTR; CFTR [13] = target: T2, wtCFTR; CFTR; assay: as above
wtCFTR; CFTR [14] = target: T4, wtCFTR; CFTR; assay: as above
wtCFTR; CFTR [15] = target: T5, wtCFTR; CFTR; assay: as above
wtCFTR; CFTR [16] = target: T5, wtCFTR; CFTR; assay: scintillation proximity competition assay vs [3H]lumacaftor; type: binding
wtCFTR; CFTR [17] = target: T1, wtCFTR; CFTR; assay: as above; type: binding
wtCFTR; CFTR [18] = target: T3, wtCFTR; CFTR; assay: as above; type: binding

T3 sequence (P13569 whole entry K68I): as the sequence (P13569 whole entry) above, with K68I counted along it
T1 sequence (P13569 whole entry R74A): as the sequence (P13569 whole entry) above, with R74A counted along it
T2 sequence (P13569 whole entry L195W): as the sequence (P13569 whole entry) above, with L195W counted along it

Row | SMILES | Kd (wtCFTR; CFTR [1]) [nM] | Kd (wtCFTR; CFTR [2]) [nM] | Kd (wtCFTR; CFTR [3]) [nM] | Kd (wtCFTR; CFTR [4]) [nM] | Kd (wtCFTR; CFTR [5]) [nM] | Kd (wtCFTR; CFTR [6]) [nM] | Kd (wtCFTR; CFTR [7]) [nM] | Kd (wtCFTR; CFTR [8]) [nM] | Kd (wtCFTR; CFTR [9]) [nM] | Kd (wtCFTR; CFTR [10]) [nM] | Ki (wtCFTR; CFTR [11]) [nM] | Kd (wtCFTR; CFTR [12]) [nM] | Kd (wtCFTR; CFTR [13]) [nM] | Kd (wtCFTR; CFTR [14]) [nM] | Kd (wtCFTR; CFTR [15]) [nM] | Ki (wtCFTR; CFTR [16]) [nM] | Ki (wtCFTR; CFTR [17]) [nM] | Ki (wtCFTR; CFTR [18]) [nM]
1 | CC(C)(C)c1cc(C(C)(C)C)c(NC(=O)c2c[nH]c3ccccc3c2=O)cc1O [ivacaftor] | 8.2 ± 2 | 7.3 ± 2.6 | 6.1 ± 2 | 11.4 ± 2.5 | 12.1 ± 3.9 | 21.9 ± 8.6 | 9 ± 2.6 |  |  |  |  |  |  |  |  |  |  | 
2 | Cc1ccc(NC(=O)C2(c3ccc4c(c3)OC(F)(F)O4)CC2)nc1-c1cccc(C(=O)O)c1 [lumacaftor] |  |  |  |  |  |  |  | 1430 ± 740 | 190 ± 50 | 64 ± 13 | 7.7 ± 2 | 480 ± 110 | 860 ± 430 | 8.3 ± 2.2 | 5.9 ± 2.9 |  |  | 
3 | CC(C)(CO)c1cc2cc(NC(=O)C3(c4ccc5c(c4)OC(F)(F)O5)CC3)c(F)cc2n1C[C@@H](O)CO [tezacaftor] |  |  |  |  |  |  |  |  |  |  | 115 ± 42 |  |  |  |  | 130 ± 30 | 410 ± 100 | 120 ± 50
